Here are results for 4 compounds from patent US20230304064A1, “AUTOMATED, DIGITAL DISPENSING PLATFORM FOR MICRODILUTION ANTIMICROBIAL SUSCEPTIBILITY TESTING” (priority 2016, published 2023).

Converted amounts (≈) assume the structure as drawn. Like-named read-outs stand apart in the source and are kept apart here. Bounds are passed on as bounds.

The test system of assay [1] is carbapenem-resistant Klebsiella pneumoniae clinical isolates (blaKPC). Put plainly: DDM (digital dispensing method) MIC testing of CRE isolates. It is filed as cell-based. As to conditions: for MIC: Klebsiella pneumoniae, read-out: DDM modal MICs. The procedure:
(§1) Bacterial strains: The 10 de-identified CRE clinical isolates used in the study were collected at our institution under Institutional Review Board-approved protocols and were sequenced through the carbapenem-resistant Enterobacteriaceae genome initiative at the Broad Institute (Cambridge, MA). All contained a Klebsiella pneumoniae carbapenemase (blaKPC) gene and were colony-purified, minimally passaged, and stored at -80° C. prior to use in this study.
(§2) After incubation, bacterial growth was quantified by measurement of OD600 using an Epoch (BioTek, Winooski, VT) or Spark 10 M microplate reader (Tecan, Morrisville, NC). An OD600 reading of 0.08 or greater (approximately twice typical background readings in wells containing broth alone) was considered indicative of bacterial growth (as also appreciable by visual assessment).
(§3) Precision and accuracy. […] Modal DDM MICs were calculated by taking the mode of all DDM MIC measurements obtained for a given antibiotic-strain combination, inclusive of initial MIC titrations and single-antibiotic rows/columns in synergy arrays (Table 5).

Assay [2] has as its system carbapenem-resistant Escherichia coli clinical isolates (blaKPC). The assay is described as above. It is filed as cell-based. As to conditions: Escherichia coli, read-out: DDM modal MICs. On the procedure: as §1, §2, §3
Assay [3] relates to Klebsiella pneumoniae strains expressing extended spectrum β-lactamases. The note with it: cited from earlier work.
The test system of assay [4] is E. coli ATCC 25922. The assay is described as follows: Microscopy-based AST (MAST): cell morphology at the MIC.
Experimental: Briefly, antibiotics are added to solidified microwell surfaces which are subsequently inoculated with 200 nL of a standardized bacterial suspension. Both antibiotic and bacterial cell dispensing are performed using the HP D300 system. Following incubation at 35±2° C., plates are imaged on a Zeiss Cell Observer microscope operating in brightfield mode with a 40X long working distance objective. The microscope is equipped with an automated stage. […] The z-position of the poloxamer surface in the first well is set manually after which the software directs the stage to each subsequent well, collecting a z-series (20 slices at 2 µM per slice with the center of the z-series defined by the microscope’s autofocus feature) with no further operator intervention. Z-series are collapsed using the Extended Depth of Focus feature in the Zeiss Zen Blue software and saved as individual images.
Microscopy-based AST (MAST). […] Two-hundred nL of bacteria in NaCl-P20 suspended at a density of 0.1 McFarland were then delivered to the center of each well by digital dispensing. Immediately after inoculation, plates were incubated at 35±2° C. for 2 hours, and held at room temperature for 2 hours during transport and imaging.
Plates were imaged with a Zeiss Cell Observer microscope with settings described in the “quantification of bacterial dispensing” section. Following manual selection of the z-position for the first well in the series, the microscope stage independently advanced to subsequent wells based on a plate map with the z-position updated automatically using the autofocus feature of the microscope control software (Zeiss Zen Blue software version 2.1 and 2.3). For each well, a z-series of 40 µm (step size = 2 µm) was automatically collected and projected to form a single image using the extended depth of focus module in the Zeiss Zen Blue software (version 2.1 and 2.3). […]
The subject of assay [5] is eighty de-identified Enterobacteriaceae clinical isolates. The assay is described as follows: organism not typed. It is filed as cell-based. As to conditions: for Non-susceptible strains (%) / Non-susceptible strains n: eighty clinical isolates, reference microdilution, CLSI criteria, EUCAST for colistin. On the procedure:
K. pneumonia BIDMC12A is a previously described, carbapenem resistant clinical isolate (14) expressing a KPC-3 carbapenemase. The eighty de-identified Enterobacteriaceae clinical isolates (Table 1) used for verification studies were collected at our institution under IRB-approved protocols. All strains were minimally passaged and stored at -80° C. prior to use in this study.
Verification study: Digital dispensing and reference method testing were performed in parallel using the same inoculum preparation. Microdilution reference panels were pre-prepared and stored at -80° C. until use (less than 2 weeks). D300 test method panels were prepared fresh each day of use.
Accuracy was evaluated using established guidelines (16, 17). The MIC determined by the digital dispensing method was compared with the MIC determined by the broth microdilution reference method. Essential agreement, overall essential agreement, and categorical agreement were evaluated as described in the precision study.
(In general: In broth dilution the organism is exposed to a series of concentrations in liquid medium.)

For assay [6], the system named is Klebsiella pneumoniae strains expressing extended spectrum β-lactamases. The note with it: cited from earlier work. This is another data set of the same source.
The test system of assay [7] is 14 Enterobacteriaceae strains presumptively expressing extended spectrum beta-lactamase enzymes. The assay is described as follows: Inoculum effect by digitally dispensed checkerboard of bacteria and antibiotic. The format is cell-based. As to conditions: inkjet printing method, inoculum above/below CLSI-recommended. An excerpt:
Inoculum effect experiments comprise a series of broth microdilution experiments in which the cell density of the bacterial inoculum is varied (often 10-fold) across multiple identical doubling dilutions of antibiotics. The MICs are then interpreted at each inoculum concentration.
There is currently no practical way to test for an inoculum effect within the workflow of a clinical laboratory, as such testing would require a highly laborious manual process of testing different inoculum levels with several potential antimicrobials. […] By varying the droplet size during digital printing of a bacterial suspension as described in the preceding section, a desired inoculum of bacteria can be added to each testing well. More specifically, doubling dilutions of bacterial inocula can be performed if desired, thereby establishing the relationship between inoculum and MIC through an inoculum dose-response curve.
We investigated the inoculum effect for cefepime (a fourth generation cephalosporin) on 14 Enterobacteriaceae strains presumptively expressing extended spectrum beta-lactamase enzymes based on third generation cephalosporin resistance. Bacteria and antibiotics were both dispensed as orthogonal, combinatorial two-fold dilution series using our digital dispensing method to create a checkerboard array. […]

In assay [8] the test system is 4 bacterial screening strains (BIDMC 4, BIDMC 5, BIDMC 12A, and BIDMC 15). Put plainly: Checkerboard synergy testing screen (FICI-MIN). The format is cell-based, Klebsiella pneumoniae; Escherichia coli. As to conditions: range over strains; read-out: MICs of the strains.
Assay [9] relates to carbapenem-resistant Enterobacteriaceae. The note with it: cited from earlier work.
The test system of assay [10] is E. cloacae ATCC 13047. Put plainly: MIC testing by broth microdilution and D300 digital dispensing (precision study). The note with it: EUCAST criteria. It is filed as cell-based, Enterobacter cloacae.
Assay [11] has as its system KPC-producing CRE K. pneumoniae strains. Put plainly: Checkerboard synergy, spectrum of activity evaluation. The note with it: strain BIDMC 18A. It is filed as cell-based, Klebsiella pneumoniae.
Experimental: Spectrum of activity evaluation. […] Each selected combination was tested in duplicate on separate days against the 10 clinical KPC-producing CRE strains (5 K. pneumoniae and 5 E. coli) listed in Table 5, including the original 4 used in the synergy testing screen.
In assay [12] the test system is P. mirabilis ATCC 702. Put plainly: MIC testing by broth microdilution and D300 digital dispensing (precision study). The note with it: precision study, EUCAST criteria.
Experimental: Broth microdilution testing: Broth microdilution was performed using the colony suspension method according to CLSI guidelines (13). Colistin testing was consistent with the joint CLSI-EUCAST (European Committee on Antimicrobial Susceptibility Testing) Polymyxin Breakpoints Working Group guidelines (15). Serial two-fold dilutions of antimicrobials at double concentration were made in 96-well plates (Evergreen Scientific, Los Angeles, CA) using cation adjusted Mueller-Hinton broth (BD Diagnostics, Franklin Lakes, NJ) in a 50 µl volume. […] MIC was defined as the lowest concentration of antimicrobial resulting in complete inhibition of growth as determined visually.
Bacterial suspensions were prepared as for broth microdilution and adjusted directly to the final inoculum concentration of 5 × 10^5 CFU ml^-1 in a 50 µl total assay volume. […] Cell growth was quantified by measurement of optical density at 600 nm (OD600) with an Epoch microplate reader (BioTek, Winooski, VT). A custom python script was used to classify wells with OD600 ≧ 0.08 (approximately two-fold above typical background readings) as having bacterial growth. […]
Precision analysis: A precision analysis was conducted according to established guidelines (16, 17). […] The modal MIC for both methods was determined using MIC values for on-scale measurements. Log2 difference of each measurement from the mode was recorded.

Take `C[C@@H](O)[C@H]1C(=O)N2C(C(=O)O)=C(S[C@@H]3CN[C@H](C(=O)N(C)C)C3)[C@H](C)[C@H]12` [Meropenem (MEM), Meropenem]: the MIC in assay [1] (BIDMC 4, KPN, KPC type 3) amounted to 32 µg/mL; in [1] (BIDMC 5, KPN, KPC type 3), 8 µg/mL; in assay [1] (BIDMC 10, KPN, KPC type 3), 4 µg/mL; in assay [1] (BIDMC 12A, KPN, KPC type 3) it was 8 µg/mL; in assay [1] (BIDMC 18A, KPN, KPC type 2), 32 µg/mL; in assay [2] (BIDMC 6, ECO, KPC type 2) it was 2 µg/mL. Also, the MIC in [2] (BIDMC 9, ECO, KPC type 2) worked out at 4 µg/mL; in assay [2] (BIDMC 15, ECO, KPC type 2), 4 µg/mL; in [2] (BIDMC 17A, ECO, KPC type 2), 2 µg/mL; in assay [2] (BIDMC 20A, ECO, KPC type 3) it was 1 µg/mL; in [5] (read-out: modal MIC), 0.03 µg/mL (≈ 0.0782 µM). In assay [3], the “in vitro inoculum effect” value is recorded as “insignificant inoculum effect”. Also, the “cell morphology at the MIC” value is “swelling” in assay [4] (E. coli after 2 hours, FIG. 13) and “rounded sphereoplasts” in assay [4] (MAST, 2-hour incubation). Besides, the “Non-susceptible strains (%)” value in assay [5] worked out at 17.5%. The Non-susceptible strains n in assay [5] was 14. Further, the “survival of infected mice after treatment” value in [6] (high dose inoculum) and in [6] (low bacterial inoculum) was “survived” each time.
As for `CO/N=C(\C(=O)N[C@@H]1C(=O)N2C(C(=O)[O-])=C(C[N+]3(C)CCCC3)CS[C@H]12)c1csc(N)n1` [FEP, cefepime], the MIC amounted to 64 µg/mL in [1] (BIDMC 4, KPN, KPC type 3); 16 µg/mL in [1] (BIDMC 5, KPN, KPC type 3); 16 µg/mL in assay [1] (BIDMC 10, KPN, KPC type 3); 16 µg/mL in [1] (BIDMC 12A, KPN, KPC type 3); 8 µg/mL in assay [2] (BIDMC 6, ECO, KPC type 2); 32 µg/mL in [2] (BIDMC 9, ECO, KPC type 2). Further, the MIC came to 4 µg/mL in [2] (BIDMC 15, ECO, KPC type 2); 4 µg/mL in assay [2] (BIDMC 17A, ECO, KPC type 2); 8 µg/mL in [2] (BIDMC 20A, ECO, KPC type 3). Moreover, the inoculum effect entry in [7] was “pronounced”. Besides, the “cell morphology at the MIC” value in assay [4] (MAST, 2-hour incubation) is listed as “filamented bacteria with a pronounced central bulge”.
On to `C[C@@H](O)[C@H]1C(=O)N2C(C(=O)O)=C(S[C@@H]3CN[C@H](C(=O)Nc4cccc(C(=O)O)c4)C3)[C@H](C)[C@H]12` [ETP, ertapenem], for which the MIC is 8 to 64 µg/mL in assay [8]; 32 µg/mL in assay [1] (BIDMC 4, KPN, KPC type 3); 16 µg/mL in assay [1] (BIDMC 5, KPN, KPC type 3); 16 µg/mL in [1] (BIDMC 10, KPN, KPC type 3); 32 µg/mL in assay [1] (BIDMC 12A, KPN, KPC type 3); 64 µg/mL in assay [1] (BIDMC 18A, KPN, KPC type 2). For the same compound, the MIC in assay [2] (BIDMC 6, ECO, KPC type 2) was determined as 8 µg/mL; in [2] (BIDMC 9, ECO, KPC type 2), 8 µg/mL; in assay [2] (BIDMC 15, ECO, KPC type 2), 32 µg/mL; in assay [2] (BIDMC 17A, ECO, KPC type 2), 8 µg/mL; in assay [2] (BIDMC 20A, ECO, KPC type 3), 4 µg/mL.
Colistin [Colistin (CL)]: the “DDM modal MICs” value in assay [1] (BIDMC 5, KPN, KPC type 3) came out at 0.5 mg/L. Besides, in [9], the “share of carbapenem-resistant Enterobacteriaceae against which the drug is effective” value is recorded as > 85%. Further, the categorical susceptibility result in assay [10] and in [12] was “resistance” throughout. In assay [5], the “Non-susceptible strains (%)” value is 21.5%. The compound also yielded a Non-susceptible strains n in assay [5] of 17. In addition, the MIC in [11] is > 128 µg/mL.
